Test results: PubChem BioAssay (NCI)
Where “and” joins values, the source holds several entries; their conditions need not be identical. Equal values may be shown once.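 96-well plates; 48 h exposure; 5 concentrations. Endpoints by linear interpolation between flanking doses. Not reached: highest tested concentration assigned. GI50 = concentration required for 50% inhibition of growth. TGI: concentration producing complete growth inhibition.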

Assays:
Test in all cases: growth of human tumour cells (NCI), 48 h
786-0 renal = test system: 786-0 renal
A498 renal = test system: A498 renal
A549 NSCLC = test system: A549 NSCLC
ACHN renal = test system: ACHN renal
CAKI-1 renal = test system: CAKI-1 renal
CCRF-CEM leukemia = test system: CCRF-CEM leukemia
COLO 205 colon = test system: COLO 205 colon
DLD-1 colon = test system: DLD-1 colon
DMS 114 small cell lung = test system: DMS 114 small cell lung
DMS 273 small cell lung = test system: DMS 273 small cell lung
EKVX NSCLC = test system: EKVX NSCLC
HCC-2998 colon = test system: HCC-2998 colon
HCT-116 colon = test system: HCT-116 colon
HCT-15 colon = test system: HCT-15 colon
HL-60(TB) leukemia = test system: HL-60(TB) leukemia
HOP-18 NSCLC = test system: HOP-18 NSCLC
HOP-62 NSCLC = test system: HOP-62 NSCLC
HOP-92 NSCLC = test system: HOP-92 NSCLC
HT29 colon = test system: HT29 colon
IGROV1 ovarian = test system: IGROV1 ovarian
K-562 leukemia = test system: K-562 leukemia
KM12 colon = test system: KM12 colon
KM20L2 colon = test system: KM20L2 colon
LOX IMVI melanoma = test system: LOX IMVI melanoma
LXFL 529 NSCLC = test system: LXFL 529 NSCLC
M14 melanoma = test system: M14 melanoma
M19-MEL melanoma = test system: M19-MEL melanoma
MALME-3M melanoma = test system: MALME-3M melanoma
MOLT-4 leukemia = test system: MOLT-4 leukemia
NCI-H226 lung = test system: NCI-H226 lung
NCI-H23 lung = test system: NCI-H23 lung
NCI-H460 lung = test system: NCI-H460 lung
NCI-H522 lung = test system: NCI-H522 lung
OVCAR-3 ovarian = test system: OVCAR-3 ovarian
OVCAR-4 ovarian = test system: OVCAR-4 ovarian
OVCAR-5 ovarian = test system: OVCAR-5 ovarian
OVCAR-8 ovarian = test system: OVCAR-8 ovarian
RPMI-8226 leukemia = test system: RPMI-8226 leukemia
RXF 393 renal = test system: RXF 393 renal
SF-268 CNS = test system: SF-268 CNS
SF-295 CNS = test system: SF-295 CNS
SF-539 CNS = test system: SF-539 CNS
SK-MEL-2 melanoma = test system: SK-MEL-2 melanoma
SK-MEL-28 melanoma = test system: SK-MEL-28 melanoma
SK-MEL-5 melanoma = test system: SK-MEL-5 melanoma
SK-OV-3 ovarian = test system: SK-OV-3 ovarian
SN12C renal = test system: SN12C renal
SNB-19 CNS = test system: SNB-19 CNS
SNB-78 CNS = test system: SNB-78 CNS
SR leukemia = test system: SR leukemia
SW-620 colon = test system: SW-620 colon
TK-10 renal = test system: TK-10 renal
U251 CNS = test system: U251 CNS
UACC-257 melanoma = test system: UACC-257 melanoma
UACC-62 melanoma = test system: UACC-62 melanoma
UO-31 renal = test system: UO-31 renal
XF 498 CNS = test system: XF 498 CNS
SNB-75 CNS = test system: SNB-75 CNS

## COc1cc2c(c(OC)c1OC)-c1ccc(SC)c(=O)cc1C(CC(=O)Oc1ccc(F)cc1)C2 (centres undefined)
786-0 renal
  GI50: 0.325 µM
  TGI: 75 µM and > 100 µM
A498 renal
  GI50: 0.0432 µM
A549 NSCLC
  GI50: 0.391 µM
ACHN renal
  GI50: 0.587 µM
  TGI: 75 µM and > 100 µM
CAKI-1 renal
  GI50: 1.9 µM
  TGI: 10 µM and > 100 µM
CCRF-CEM leukemia
  GI50: 0.367 µM
  TGI: 27.5 µM and > 100 µM
COLO 205 colon
  GI50: 0.307 µM
  TGI: 0.305 µM and 1.03 µM
DLD-1 colon
  TGI: 75 µM and 10.1 µM
DMS 114 small cell lung
  GI50: 0.0325 µM
DMS 273 small cell lung
  GI50: 0.262 µM
EKVX NSCLC
  GI50: 0.981 µM
  TGI: 75 µM and > 100 µM
HCC-2998 colon
  GI50: 0.161 µM
  TGI: 0.325 µM and 0.46 µM
HCT-116 colon
  GI50: 0.323 µM
  TGI: 0.306 µM and 1.08 µM
HCT-15 colon
  GI50: 0.384 µM
  TGI: 0.989 µM and 2.86 µM
HL-60(TB) leukemia
  TGI: 0.768 µM
HOP-18 NSCLC
  GI50: > 100 µM
  TGI: 75 µM and > 100 µM
HOP-62 NSCLC
  GI50: 0.41 µM
  TGI: 54.6 µM and 49.6 µM
HOP-92 NSCLC
  GI50: 1.91 µM
  TGI: 75 µM and 97.7 µM
HT29 colon
  GI50: 0.258 µM
  TGI: 0.392 µM and 0.675 µM
IGROV1 ovarian
  GI50: 0.293 µM
  TGI: 75 µM and > 100 µM
K-562 leukemia
  GI50: 0.351 µM
  TGI: 75 µM and > 100 µM
KM12 colon
  TGI: 2.37 µM
KM20L2 colon
  GI50: 0.189 µM
  TGI: 0.239 µM and 0.363 µM
LOX IMVI melanoma
  GI50: 0.392 µM
  TGI: 8.26 µM and 10.8 µM
LXFL 529 NSCLC
  GI50: 0.507 µM
M14 melanoma
  TGI: 14.4 µM
M19-MEL melanoma
  GI50: 0.338 µM
  TGI: 14.1 µM and 23.1 µM
MALME-3M melanoma
  TGI: 75 µM and > 100 µM
MOLT-4 leukemia
  GI50: 0.518 µM
  TGI: 27.7 µM and > 100 µM
NCI-H226 lung
  GI50: 0.201 µM
  TGI: 0.612 µM and 0.677 µM
NCI-H23 lung
  GI50: 0.287 µM
  TGI: 0.667 µM and 1.04 µM
NCI-H460 lung
  GI50: 0.346 µM
  TGI: 1.83 µM and 1.14 µM
NCI-H522 lung
  GI50: 0.217 µM
  TGI: 0.31 µM and 0.61 µM
OVCAR-3 ovarian
  TGI: 0.608 µM
OVCAR-4 ovarian
  GI50: 5.4 µM
  TGI: 75 µM and > 100 µM
OVCAR-5 ovarian
  GI50: 0.973 µM
  TGI: 75 µM and > 100 µM
OVCAR-8 ovarian
  GI50: 0.28 µM
RPMI-8226 leukemia
  TGI: 12.2 µM and 11 µM
RXF 393 renal
  GI50: 0.0426 µM
SF-268 CNS
  GI50: 0.461 µM
  TGI: 75 µM and 15 µM
SF-295 CNS
  GI50: 0.286 µM
  TGI: 75 µM and > 100 µM
SF-539 CNS
  TGI: 0.656 µM
SK-MEL-2 melanoma
  GI50: 0.449 µM
  TGI: 0.91 µM and 4.17 µM
SK-MEL-28 melanoma
  TGI: > 100 µM
SK-MEL-5 melanoma
  GI50: 0.293 µM
  TGI: 1.1 µM and 3.38 µM
SK-OV-3 ovarian
  GI50: 0.04 µM
  TGI: 24.9 µM and 11.6 µM
SN12C renal
  TGI: 20.2 µM and 7.79 µM
SNB-19 CNS
  GI50: 0.96 µM
  TGI: 75 µM and > 100 µM
SNB-78 CNS
  GI50: 0.0891 µM
  TGI: 75 µM and 73.6 µM
SR leukemia
  GI50: 0.124 µM
  TGI: 3.14 µM and 24 µM
SW-620 colon
  GI50: 0.358 µM
  TGI: 11.1 µM and > 100 µM
TK-10 renal
  GI50: 21.5 µM
  TGI: 75 µM and > 100 µM
U251 CNS
  GI50: 0.41 µM
  TGI: 1.41 µM and 2.35 µM
UACC-257 melanoma
  GI50: 0.264 µM
  TGI: 75 µM and > 100 µM
UACC-62 melanoma
  GI50: 0.0509 µM
  TGI: 0.73 µM and 0.539 µM
UO-31 renal
  GI50: 2.49 µM
  TGI: 75 µM and > 100 µM
XF 498 CNS
  GI50: 0.442 µM
  TGI: 7.03 µM and 5.13 µM

## COc1cc2c[n+](C)c3c4cc(OC)c(OC)cc4c(OCCCCCCCCOc4cc5c6cc(OC)c(OC)cc6c[n+](C)c5c5cc(OC)c(OC)cc45)cc3c2cc1OC
786-0 renal
  TGI: > 100 µM
A498 renal
  TGI: > 100 µM
A549 NSCLC
  TGI: > 100 µM
ACHN renal
  TGI: > 100 µM
CAKI-1 renal
  TGI: > 100 µM
CCRF-CEM leukemia
  TGI: > 100 µM
DLD-1 colon
  TGI: > 100 µM
DMS 114 small cell lung
  TGI: > 100 µM
DMS 273 small cell lung
  TGI: > 100 µM
EKVX NSCLC
  TGI: > 100 µM
HCC-2998 colon
  TGI: > 100 µM
HCT-116 colon
  TGI: > 100 µM
HCT-15 colon
  TGI: > 100 µM
HL-60(TB) leukemia
  TGI: > 100 µM
HOP-18 NSCLC
  TGI: > 100 µM
HOP-62 NSCLC
  TGI: > 100 µM
HOP-92 NSCLC
  TGI: > 100 µM
HT29 colon
  TGI: > 100 µM
IGROV1 ovarian
  TGI: > 100 µM
K-562 leukemia
  TGI: > 100 µM
KM12 colon
  TGI: > 100 µM
KM20L2 colon
  TGI: > 100 µM
LOX IMVI melanoma
  TGI: > 100 µM
LXFL 529 NSCLC
  TGI: > 100 µM
M14 melanoma
  TGI: > 100 µM
M19-MEL melanoma
  TGI: > 100 µM
MALME-3M melanoma
  TGI: > 100 µM
MOLT-4 leukemia
  TGI: > 100 µM
NCI-H226 lung
  TGI: > 100 µM
NCI-H23 lung
  TGI: > 100 µM
NCI-H460 lung
  TGI: > 100 µM
NCI-H522 lung
  TGI: > 100 µM
OVCAR-3 ovarian
  TGI: > 100 µM
OVCAR-4 ovarian
  TGI: > 100 µM
OVCAR-5 ovarian
  TGI: > 100 µM
OVCAR-8 ovarian
  TGI: > 100 µM
RPMI-8226 leukemia
  TGI: > 100 µM
RXF 393 renal
  TGI: > 100 µM
SF-268 CNS
  TGI: > 100 µM
SF-295 CNS
  TGI: > 100 µM
SF-539 CNS
  TGI: > 100 µM
SK-MEL-2 melanoma
  TGI: > 100 µM
SK-MEL-28 melanoma
  TGI: > 100 µM
SK-MEL-5 melanoma
  TGI: > 100 µM
SK-OV-3 ovarian
  TGI: > 100 µM
SN12C renal
  TGI: > 100 µM
SNB-19 CNS
  TGI: 66.3 µM
SNB-75 CNS
  TGI: > 100 µM
SNB-78 CNS
  TGI: > 100 µM
SR leukemia
  TGI: > 100 µM
SW-620 colon
  TGI: > 100 µM
TK-10 renal
  TGI: > 100 µM
U251 CNS
  TGI: > 100 µM
UACC-257 melanoma
  TGI: > 100 µM
UACC-62 melanoma
  TGI: > 100 µM
UO-31 renal
  TGI: > 100 µM
XF 498 CNS
  TGI: > 100 µM
